Data: patent publication US20090069320A1, “Substituted 4-Amino-Quinazoline Compounds with Metabotropic Glutamate Receptor Regulating Activity and Uses Thereof” (Gruenenthal GmbH, priority 2006, published 2009)

target: T1, mGluR5 receptor (Sus scrofa, UniProt I3LUI7); assay: [3H]-MPEP mGluR5 receptor binding assay (pig brain homogenate); settings: 10 μM compound, 5 nM [3H]-MPEP
T1 construct: 450 μg of protein from brain homogenate with 5 nM ^3[H]-MPEP; from tissue; host or cells: pig brain halves without medulla, cerebellum and pons
Procedure, shortened: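 Compounds at 10 μM competed with 5 nM [3H]-MPEP for binding to pig brain membranes (450 μg protein) for 60 min at room temperature in pH 8.0 Hepes buffer. Bound radioactivity was collected on glass-fibre filters and read by β-counting, with 10 μM unlabelled MPEP giving non-specific binding.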

T1 sequence (I3LUI7 19-1212): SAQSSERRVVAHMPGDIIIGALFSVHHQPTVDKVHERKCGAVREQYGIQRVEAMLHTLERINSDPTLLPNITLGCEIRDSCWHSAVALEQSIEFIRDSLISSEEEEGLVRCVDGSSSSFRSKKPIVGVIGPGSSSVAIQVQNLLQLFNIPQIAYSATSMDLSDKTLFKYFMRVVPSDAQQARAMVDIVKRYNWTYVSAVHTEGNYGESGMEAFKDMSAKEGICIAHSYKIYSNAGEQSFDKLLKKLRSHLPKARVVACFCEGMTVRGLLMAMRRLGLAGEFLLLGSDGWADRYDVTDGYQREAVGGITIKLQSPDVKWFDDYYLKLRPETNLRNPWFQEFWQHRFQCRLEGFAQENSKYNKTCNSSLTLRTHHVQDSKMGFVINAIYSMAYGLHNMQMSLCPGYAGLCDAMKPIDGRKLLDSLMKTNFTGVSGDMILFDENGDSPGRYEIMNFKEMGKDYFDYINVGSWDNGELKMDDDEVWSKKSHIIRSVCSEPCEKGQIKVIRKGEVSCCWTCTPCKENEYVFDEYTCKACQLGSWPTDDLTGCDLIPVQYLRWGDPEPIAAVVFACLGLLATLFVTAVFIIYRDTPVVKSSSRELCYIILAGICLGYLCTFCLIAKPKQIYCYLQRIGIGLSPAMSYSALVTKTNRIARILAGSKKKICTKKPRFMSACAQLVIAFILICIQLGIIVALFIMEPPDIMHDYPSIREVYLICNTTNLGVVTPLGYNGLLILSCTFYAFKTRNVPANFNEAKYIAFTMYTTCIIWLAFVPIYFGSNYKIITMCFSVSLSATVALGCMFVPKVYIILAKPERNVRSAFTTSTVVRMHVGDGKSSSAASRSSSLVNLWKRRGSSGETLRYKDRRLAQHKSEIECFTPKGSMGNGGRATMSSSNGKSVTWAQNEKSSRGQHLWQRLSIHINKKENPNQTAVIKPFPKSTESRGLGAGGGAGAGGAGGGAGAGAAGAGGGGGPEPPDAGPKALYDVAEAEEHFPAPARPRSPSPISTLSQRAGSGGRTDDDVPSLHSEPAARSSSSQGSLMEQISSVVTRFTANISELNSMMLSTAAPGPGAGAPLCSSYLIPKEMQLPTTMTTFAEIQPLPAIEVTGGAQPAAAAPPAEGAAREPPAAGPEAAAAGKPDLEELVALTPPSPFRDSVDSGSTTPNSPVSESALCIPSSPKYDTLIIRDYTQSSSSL

Structure (SMILES) | % Inhibition of mGluR5 Receptor (pig) [^3H]-MPEP Bond at 10 μM
O=S(=O)(c1ccccc1)N(Cc1cc(-c2ccc3ncnc(NC4CC4)c3c2)ccn1)C1CC1 [Example 731, N-cyclopropyl-N-((4-(4-(cyclopropylamino)quinazolin-6-yl)pyridin-2-yl)methyl)benzole sulfonamide] | 86%

same assay, conditions: 10 μM compound, 5 nM [3H]-MPEP, read-out: % Inhibition of mGluR5 Receptor (pig) [^3H]-MPEP Bond at 10 μM

Structure (SMILES) | inhibition at 10 µM
COc1ccc(C(=O)N(Cc2cccc(-c3cc4c(NC5CC5)ncnc4cc3C)c2)C2CC2)cc1OC [Example 722, N-cyclopropyl-N-(3-(4-(cyclopropylamino)-7-methylquinazolin-6-yl)benzyl)-3,4-dimethoxybenzamide] | 72%
Cc1cc2ncnc(NC3CC3)c2cc1-c1cccc(CN(C(=O)CN(C)C)C2CC2)c1 [Example 723, N-cyclopropyl-N-(3-(4-(cyclopropylamino)-7-methylquinazolin-6-yl)benzyl)-2-(dimethylamino)acetamide] | 43%
CC(C)(C)C(=O)N(Cc1cccc(-c2cc(F)c3ncnc(NC4CC4)c3c2)c1)C1CC1 [Example 724, N-cyclopropyl-N-(3-(4-(cyclopropylamino)-8-fluoroquinazolin-6-yl)benzyl)pivalamide] | 86%
Cc1cccc(CNc2ncnc3ccc(-c4cccc(CN(C(=O)CN(C)C)C5CC5)c4)cc23)c1 [Example 726, N-cyclopropyl-2-(dimethylamino)-N-(3-(4-(3-methylbenzylamino)quinazolin-6-yl)benzyl)acetamide] | 65%
O=C(c1cccc(F)c1)N(Cc1cccc(-c2cc(F)c3ncnc(NC4CC4)c3c2)c1)C1CC1 [Example 727, N-cyclopropyl-N-(3-(4-(cyclopropylamino)-8-fluoroquinazolin-6-yl)benzyl)-3-fluorobenzamide] | 93%
O=C(c1cccc(C(F)(F)F)c1)N(Cc1cccc(-c2cc(F)c3ncnc(NC4CC4)c3c2)c1)C1CC1 [Example 728, N-cyclopropyl-N-(3-(4-(cyclopropylamino)-8-fluoroquinazolin-6-yl)benzyl)-3-(trifluoromethyl)benzamide] | 63%
COc1ccc(CNc2ncnc3ccc(-c4cccc(CN(C(=O)c5cc(C)nn5C)C5CC5)c4)cc23)c(OC)c1 [Example 730, N-cyclopropyl-N-(3-(4-(2,4-dimethoxybenzylamino)quinazolin-6-yl)benzyl)-1,3-dimethyl-1H-pyrazole-5-carboxamide] | 35%
O=C(c1cccc(C(F)(F)F)c1)N(Cc1cc(-c2ccc3ncnc(NC4CC4)c3c2)ccc1Cl)C1CC1 [Example 732, N-(2-chloro-5-(4-(cyclopropylamino)quinazolin-6-yl)benzyl)-N-cyclopropyl-3-(trifluoromethyl)benzamide] | 63%
CN(C)CC(=O)N(Cc1cc(-c2ccc3ncnc(NC4CC4)c3c2)ccc1Cl)C1CC1 [Example 733, N-(2-chloro-5-(4-(cyclopropylamino)quinazolin-6-yl)benzyl)-N-cyclopropyl-2-(dimethylamino)acetamide] | 39%
O=S(=O)(c1cccs1)N(Cc1cc(-c2ccc3ncnc(NC4CC4)c3c2)ccc1Cl)C1CC1 [Example 734, N-(2-chloro-5-(4-(cyclopropylamino)quinazolin-6-yl)benzyl)-N-cyclopropylthiophene-2-sulfonamide] | 91%
O=C(c1ccc(C(F)(F)F)cc1F)N(Cc1cc(-c2ccc3ncnc(NC4CC4)c3c2)ccn1)C1CC1 [Example 735, N-cyclopropyl-N-((4-(4-(cyclopropylamino)quinazolin-6-yl)pyridin-2-yl)methyl)-2-fluoro-4-(trifluoromethyl)benzamide] | 72%
O=C(c1ccncc1)N(Cc1cccc(-c2cc(F)c3ncnc(NC4CC4)c3c2)c1)C1CC1 [Example 736, N-cyclopropyl-N-(3-(4-(cyclopropylamino)-8-fluoroquinazolin-6-yl)benzyl)isonicotinamide] | 91%
Cc1cc2ncnc(NC3CC3)c2cc1-c1cccc(CN(C2CC2)S(=O)(=O)c2cccs2)c1 [Example 737, N-cyclopropyl-N-(3-(4-(cyclopropylamino)-7-methylquinazolin-6-yl)benzyl)thiophene-2-sulfonamide] | 74%
O=C(c1ccc(C(F)(F)F)cc1F)N(Cc1cccc(-c2cc(F)c3ncnc(NC4CC4)c3c2)c1)C1CC1 [Example 738, N-cyclopropyl-N-(3-(4-(cyclopropylamino)-8-fluoroquinazolin-6-yl)benzyl)-2-fluoro-4-(trifluoromethyl)benzamide] | 90%
CN(C)CC(=O)N(Cc1cc(-c2ccc3ncnc(NC4CC4)c3c2)ccn1)C1CC1 [Example 739, N-cyclopropyl-N-((4-(4-(cyclopropylamino)quinazolin-6-yl)pyridin-2-yl)methyl)-2-(dimethylamino)acetamide] | 47%
O=C(c1ccccc1C(F)(F)F)N(Cc1cc(-c2ccc3ncnc(NC4CC4)c3c2)ccc1Cl)C1CC1 [Example 740, N-(2-chloro-5-(4-(cyclopropylamino)quinazolin-6-yl)benzyl)-N-cyclopropyl-2-(trifluoromethyl)benzamide] | 85%

Structure (SMILES) | inhibition at 10 µM
O=C(C1CCCCC1)N(Cc1cc(-c2ccc3ncnc(NC4CC4)c3c2)ccc1Cl)C1CC1 [Example 741, N-(2-chloro-5-(4-(cyclopropylamino)quinazolin-6-yl)benzyl)-N-cyclopropylcyclohexane carboxamide] | 37%
O=S(=O)(c1cccc2cccnc12)N(Cc1cc(-c2ccc3ncnc(NC4CC4)c3c2)ccc1Cl)C1CC1 [Example 742, N-(2-chloro-5-(4-(cyclopropylamino)quinazolin-6-yl)benzyl)-N-cyclopropylquinoline-8-sulfonamide] | 69%
COCC(=O)N(Cc1cccc(-c2cc(F)c3ncnc(NC4CC4)c3c2)c1)C1CC1 [Example 744, N-cyclopropyl-N-(3-(4-(cyclopropylamino)-8-fluoroquinazolin-6-yl)benzyl)-2-methoxyacetamide] | 90%
Cc1cc2ncnc(NC3CC3)c2cc1-c1cccc(CN(C(=O)c2ccno2)C2CC2)c1 [Example 745, N-cyclopropyl-N-(3-(4-(cyclopropylamino)-7-methylquinazolin-6-yl)benzyl)isoxazole-5-carboxamide] | 52%
O=C(c1ccco1)N(Cc1cc(-c2ccc3ncnc(NC4CC4)c3c2)ccc1Cl)C1CC1 [Example 746, N-(2-chloro-5-(4-(cyclopropylamino)quinazolin-6-yl)benzyl)-N-cyclopropylfuran-2-carboxamide] | 93%
O=C(c1cc(Cl)cc(Cl)c1)N(Cc1cc(-c2ccc3ncnc(NC4CC4)c3c2)ccc1Cl)C1CC1 [Example 747, 3,5-dichloro-N-(2-chloro-5-(4-(cyclopropylamino)quinazolin-6-yl)benzyl)-N-cyclopropylbenzamide] | 52%
O=C(Cc1ccccc1)N(Cc1cc(-c2ccc3ncnc(NC4CC4)c3c2)ccc1Cl)C1CC1 [Example 748, N-(2-chloro-5-(4-(cyclopropylamino)quinazolin-6-yl)benzyl)-N-cyclopropyl-2-phenylacetamide] | 66%
O=C(c1ccccc1C(F)(F)F)N(Cc1cc(-c2ccc3ncnc(NC4CC4)c3c2)ccn1)C1CC1 [Example 749, N-cyclopropyl-N-((4-(4-(cyclopropylamino)quinazolin-6-yl)pyridin-2-yl)methyl)-2-(trifluoromethyl)benzamide] | 65%
O=C(c1cc(Cl)cc(Cl)c1)N(Cc1cc(-c2ccc3ncnc(NC4CC4)c3c2)ccn1)C1CC1 [Example 750, 3,5-dichloro-N-cyclopropyl-N-((4-(4-(cyclopropylamino)quinazolin-6-yl)pyridin-2-yl)methyl)benzamide] | 42%
CN(C)CC(=O)N(Cc1cccc(-c2cc(F)c3ncnc(NC4CC4)c3c2)c1)C1CC1 [Example 751, N-cyclopropyl-N-(3-(4-(cyclopropylamino)-8-fluoroquinazolin-6-yl)benzyl)-2-(dimethylamino)acetamide] | 53%
O=C(c1c(F)c(F)c(F)c(F)c1F)N(Cc1cccc(-c2cc(F)c3ncnc(NC4CC4)c3c2)c1)C1CC1 [Example 752, N-cyclopropyl-N-(3-(4-(cyclopropylamino)-8-fluoroquinazolin-6-yl)benzyl)-2,3,4,5,6-pentafluorobenzamide] | 62%
O=C(c1cccs1)N(Cc1cc(-c2ccc3ncnc(NC4CC4)c3c2)ccc1Cl)C1CC1 [Example 754, N-(2-chloro-5-(4-(cyclopropylamino)quinazolin-6-yl)benzyl)-N-cyclopropylthiophene-2-carboxamide] | 95%
O=C(c1ccccn1)N(Cc1cc(-c2ccc3ncnc(NC4CC4)c3c2)ccc1Cl)C1CC1 [Example 755, N-(2-chloro-5-(4-(cyclopropylamino)quinazolin-6-yl)benzyl)-N-cyclopropylpicolinamide] | 78%
O=C(CCc1ccccc1)N(Cc1cc(-c2ccc3ncnc(NC4CC4)c3c2)ccc1Cl)C1CC1 [Example 756, N-(2-chloro-5-(4-(cyclopropylamino)quinazolin-6-yl)benzyl)-N-cyclopropyl-3-phenylpropanamide] | 69%
Cc1nc(C(=O)N(Cc2cccc(-c3cc4c(NC5CC5)ncnc4cc3C)c2)C2CC2)cs1 [Example 759, N-cyclopropyl-N-(3-(4-(cyclopropylamino)-7-methylquinazolin-6-yl)benzyl)-2-methylthiazole-4-carboxamide] | 83%
Cc1cc(C(=O)N(Cc2cccc(-c3cc(F)c4ncnc(NC5CC5)c4c3)c2)C2CC2)n(C)n1 [Example 760, N-cyclopropyl-N-(3-(4-(cyclopropylamino)-8-fluoroquinazolin-6-yl)benzyl)-1,3-dimethyl-1H-pyrazole-5-carboxamide] | 93%
